Holding throughout (assay): relative viability (nuclei count vs DMSO), 5 days (fraction); higher = more cells survive
Compound in assay [1]: CC1=NC=CC(=C1)C2=CC=C(C=C2)CC(=O)NC3=CC=C(C=C3)C4=CN=CC=C4 [Wnt-C59] + COc1cc2c(Oc3ccc(NC(=O)C4(C(=O)Nc5ccc(F)cc5)CC4)cc3F)ccnc2cc1OCCCN1CCOCC1 [Foretinib] (partner 0.25 µM)
Summed up:
(§1)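 Relative viability was taken as the ratio of nuclei in treated wells to nuclei in vehicle wells. Lung cancer cell lines in 1536-well plates received compounds by pin tool one day after seeding, either one drug alone or a fixed anchor-drug dose plus five library-drug doses (not always all listed) in √10 steps. Nuclei were counted on 4× images after 5 days of treatment, and values are medians of duplicate plates.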

Compound in assay [2]: CS(=O)(=O)CCNCc1ccc(-c2ccc3ncnc(Nc4ccc(OCc5cccc(F)c5)c(Cl)c4)c3c2)o1 [Lapatinib] + Cc1nc(NC(=O)N2CCC[C@H]2C(N)=O)sc1-c1ccnc(C(C)(C)C(F)(F)F)c1 [Alpelisib] (partner 2 µM)
Summed up: as §1

Compound in assay [3]: CC1=NC=CC(=C1)C2=CC=C(C=C2)CC(=O)NC3=CC=C(C=C3)C4=CN=CC=C4 [Wnt-C59] + C[C@@H](Oc1cc(-c2cnn(C3CCNCC3)c2)cnc1N)c1c(Cl)ccc(F)c1Cl [Crizotinib] (partner 1 µM)
In outline:
as §1

Compound in assay [4]: CC1=NC=CC(=C1)C2=CC=C(C=C2)CC(=O)NC3=CC=C(C=C3)C4=CN=CC=C4 [Wnt-C59] + O=C(CCCCCCC(=O)Nc1ccccc1)NO [Vorinostat] (partner 1 µM)
Summed up:
as §1

As for EBC-1, the relative viability was found to be 0.112 in assay [1] (first compound 0.001 µM); 0.11 in assay [1] (first compound 0.01 µM); 0.126 in assay [1] (first compound 0.03162 µM); 0.106 in assay [1] (first compound 0.1 µM); 0.826 in assay [2] (first compound 0.02 µM); 0.766 in assay [2] (first compound 0.06325 µM). The relative viability in assay [2] (first compound 0.2 µM) was determined as 0.889; in assay [2] (first compound 0.6325 µM), 0.801; in assay [2] (first compound 2 µM), 0.695; in assay [3] (first compound 0.001 µM), 0.191; in assay [3] (first compound 0.01 µM), 0.188; in assay [3] (first compound 0.03162 µM), 0.204. Moreover, the relative viability in assay [3] (first compound 0.1 µM) is 0.224.
As for EKVX, the relative viability in assay [1] (first compound 0.001 µM) came to 0.763; in assay [1] (first compound 0.01 µM), 0.725; in assay [1] (first compound 0.03162 µM) it was 0.833; in assay [1] (first compound 0.1 µM) it was 0.714; in assay [4] (first compound 0.001 µM), 0.805; in assay [4] (first compound 0.01 µM), 0.585. The relative viability stood at 0.574 in assay [4] (first compound 0.03162 µM); 0.557 in assay [4] (first compound 0.1 µM); 0.869 in assay [2] (first compound 0.02 µM); 0.675 in assay [2] (first compound 0.06325 µM); 0.845 in assay [2] (first compound 0.2 µM); 0.575 in assay [2] (first compound 0.6325 µM). The relative viability is 0.212 in assay [2] (first compound 2 µM); 1.06 in assay [3] (first compound 0.001 µM); 1.09 in assay [3] (first compound 0.01 µM); 0.879 in assay [3] (first compound 0.03162 µM); 0.874 in assay [3] (first compound 0.1 µM).
Turning to EMC-BAC-2, the relative viability in assay [1] (first compound 0.001 µM) is 0.946; in assay [1] (first compound 0.01 µM), 0.964; in assay [1] (first compound 0.03162 µM), 0.967; in assay [1] (first compound 0.1 µM), 0.561; in assay [4] (first compound 0.001 µM) it was 0.421; in assay [4] (first compound 0.01 µM), 0.412. In addition, the relative viability in assay [4] (first compound 0.03162 µM) amounted to 0.409; in assay [4] (first compound 0.1 µM), 0.751; in assay [2] (first compound 0.02 µM) it was 0.72; in assay [2] (first compound 0.06325 µM) it was 0.652; in assay [2] (first compound 0.2 µM) it was 0.694; in assay [2] (first compound 0.6325 µM), 0.622. For the same cell line, the relative viability in assay [2] (first compound 2 µM) was found to be 0.592; in assay [3] (first compound 0.001 µM), 0.642; in assay [3] (first compound 0.01 µM), 0.649; in assay [3] (first compound 0.03162 µM), 0.636; in assay [3] (first compound 0.1 µM) it was 0.678.
As to EPLC-272H, the relative viability in assay [1] (first compound 0.001 µM) was found to be 0.722; in assay [1] (first compound 0.01 µM) it was 0.667; in assay [1] (first compound 0.03162 µM), 0.831; in assay [1] (first compound 0.1 µM), 0.697; in assay [4] (first compound 0.001 µM), 0.394; in assay [4] (first compound 0.01 µM), 0.561. The relative viability in assay [4] (first compound 0.03162 µM) was 0.512; in assay [4] (first compound 0.1 µM), 0.396; in assay [2] (first compound 0.06325 µM), 0.807; in assay [2] (first compound 0.2 µM), 0.819; in assay [2] (first compound 0.6325 µM), 0.746; in assay [2] (first compound 2 µM) it was 0.821. Further, the relative viability in assay [3] (first compound 0.001 µM) was determined as 0.955; in assay [3] (first compound 0.01 µM), 0.8; in assay [3] (first compound 0.03162 µM), 0.874; in assay [3] (first compound 0.1 µM) it was 0.53.
Consider H3255, for which the relative viability in assay [1] (first compound 0.001 µM) is 0.944; in assay [1] (first compound 0.01 µM) it was 0.892; in assay [1] (first compound 0.03162 µM), 1.12; in assay [1] (first compound 0.1 µM), 0.951; in assay [4] (first compound 0.001 µM), 0.79; in assay [4] (first compound 0.01 µM), 0.71. In addition, the relative viability was 0.95 in assay [4] (first compound 0.03162 µM); 0.86 in assay [4] (first compound 0.1 µM); 0.591 in assay [2] (first compound 0.02 µM); 0.506 in assay [2] (first compound 0.06325 µM); 0.643 in assay [2] (first compound 0.2 µM); 0.635 in assay [2] (first compound 0.6325 µM). Moreover, the relative viability in assay [2] (first compound 2 µM) was found to be 0.232; in assay [3] (first compound 0.001 µM), 0.86; in assay [3] (first compound 0.01 µM), 0.959; in assay [3] (first compound 0.03162 µM), 0.942; in assay [3] (first compound 0.1 µM), 0.751.
